According to patent publication US5733922A, “Imidazole derivative, pharmaceutically acceptable salt thereof, and anti-ulcer drug including such derivative or salt” (Arax Co., Ltd., priority 1995, dated 1998):

tested on: acetic acid-induced gastric ulcer; experiment: Healing effect on acetic acid-induced gastric ulcer of rat; assay type: in vivo; settings: male Donryu rat, oral, 50 mg/kg two times a day, 10 consecutive days; ulcer surface area
Experimental: A male Donryu rat of 7-week age was subjected to abdominal incision to expose the stomach, with pentobarbital used as an anesthesia. Using a metal ring having an inside diameter of 10 mm, 200 μL of glacial acetic acid was applied for contact with a serosa-side part of a boundary area between the antrum and the corpus body. The abdomen of the specimen rat subjected to the glacial acetic acid was closed by an operation, and the rat was then fed in a normal way. The compound obtained in Example 16 was orally administered as a specimen drug to the specimen rat two times a day (at 9:00 a.m. and 5:00 p.m.), each time with a dose of 50 mg/kg, beginning on the day following the day on which the glacial acetic acid was applied to the rat. The oral administration continued for 10 consecutive days, with a total of 20 administrations. On the day following the last day of administration, the specimen rat was sacrificed with ether, and the ulcer portion of the rat was fixed with formalin. The surface area of the ulcer portion was measured. The healing percent (%) calculated on the basis of the measured surface area was 28.9%.

In the case of `CN(C)c1ccccc1CSC1=NC(C)(C)C(=O)N1` [Example 16, 2-(2-dimethylaminobenzylthio)-5,5-dimethylimidazolin-4-one], the healing percent is reported as 28.9%.

tested on: hydrochloric acid.ethanol-induced gastric ulcer; experiment: Inhibitory effect on hydrochloric acid.ethanol-induced gastric ulcer; assay type: in vivo; settings: Rattus norvegicus, 1 h, male SD rats, oral, 30 min before 98% ethanol containing 200 mM hydrochloric acid, read-out: Inhibitory Percent (ulcer inhibitory percent)
Experimental: Male SD rats of 7-week age were fasted for 24 hours, with a fast of water beginning in early morning of the day when the experiments were performed. The rats were classified into groups each consisting of five rats, such that all the groups have substantially the same average weight. Before giving hydrochloric acid.ethanol to the rats, the compounds of the Examples indicated in TABLE 2 were orally administered as specimen drugs to the rats, with a dose of 30 mg/kg. Thirty minutes later, 1 mL of 98% ethanol containing 200 mM of hydrochloric acid was orally administered to each specimen rat. One hour later, the specimen rats were sacrificed by ether, and the mucosa of the stomach of each rat was semi-fixed with 2% formalin. The longitudinal length of the damaged area of the gastric mucosa was measured, and the anti-ulcer percent values of the individual specimen drugs were calculated on the basis of the sum of the measured length values of each group of the specimen rats, in the same manner as in Example 68.

Point of comparison: `CC1(C)N=C(SCc2ccccn2)NC1=O` [Example 8, 2-(2-pyridylmethylthio)-5,5-dimethylimidazolin-4-one], inhibition in vivo at 30 mg/kg 93%. Against it:
- O=C1CN=C(SCc2ccccn2)N1 [Example 1, 2-(2-pyridylmethylthio)imidazolin-4-one] — lower, 71.9%
- CC1N=C(SCc2ccccn2)NC1=O (centres unmarked) [Example 9, 2-(2-pyridylmethylthio)-5-methylimidazolin-4-one] — higher, 94.9%
- CC(C)CN(C)c1ccccc1CSC1=NC(C)(C)C(=O)N1 [Example 21, 2-(2-N-isobutyl-N-methylaminobenzylthio)-5,5-dimethylimidazolin-4-one] — higher, 99.6%
- CN(C)c1ccccc1CSC1=NC(Cc2ccccc2)C(=O)N1 (centres unmarked) [Example 23, 2-(2-dimethylaminobenzylthio)-5-benzylimidazolin-4-one] — lower, 83.6%
- CCCCC1(CC)N=C(SCc2ccccc2N(C)C)NC1=O (centres unmarked) [Example 29, 2-(2-dimethylaminobenzylthio)-5-butyl-5-ethylimidazolin-4-one] — lower, 69.5%
- CCC1(C)C(=O)N=C(SCc2ccccc2N(C)C)N1C(C)=O (centres unmarked) [Example 34, 1-N-acetyl-2-(2-dimethylaminobenzylthio)-5-ethyl-5-methyl-2-imidazolin-4-one] — lower, 52%
- CN(C)c1ccccc1CSC1=NC(C)(c2ccccc2)C(=S)N1 (centres unmarked) [Example 41, 2-(2-dimethylaminobenzylthio)-5-phenyl-5-methylimidazolin-4-thione] — lower, 74.5%

same assay, conditions: male SD rats, oral, 30 mg/kg, 30 min before 98% ethanol containing 200 mM hydrochloric acid

For `CN(C)c1ccccc1CSC1=NC(=O)/C(=C\c2ccccc2)N1` [Example 18, 2-(2-dimethylaminobenzylthio)-5-trans-benzylideneimidazolin-4-one], the “Inhibitory Percent (ulcer inhibitory percent)” value was 37.4%.

tested on: water-immersion restraint stress-induced gastric ulcer; experiment: Inhibitory effect on water-immersion restraint stress-induced gastric ulcer; assay type: in vivo; settings: male SD rats, oral, 10 mg/kg, 7 h water-immersion restraint stress
Experimental: Male 7-week SD rats were fasted for 24 hours, with a fast of water beginning in early morning of the day when the experiments were performed. The rats were classified into groups each consisting of five rats, such that all the groups have substantially the same average weight. Before giving a stress to the rats, the compounds of the Examples indicated in TABLE 1 were orally administered as specimen drugs to the rats, with a dose of 10 mg/kg. The rats were then kept in stress cages, and were given a stress by immersing the cages in a water bath kept at a substantially constant temperature of 23°±1° C., such that the water level was at the height of the xiphoid of the rats. Seven hours later, the specimen rats were sacrificed by ether, and the mucosa of the stomach of each rat was semi-fixed with 2% formalin. The longitudinal length of the damaged area of the gastric mucosa was measured. A sum of the measured length values of the rats of each group was calculated as an ulcer index. An anti-ulcer or ulcer inhibitory percent (%) was calculated as {1-(ulcer index of each group of specimen rats)/(ulcer index of non-specimen group)}×100.

Point of comparison: `CN(C)c1ccccc1CSC1=NC(C)(C)C(=O)N1` [Example 16, 2-(2-dimethylaminobenzylthio)-5,5-dimethylimidazolin-4-one], “Inhibitory Percent (ulcer inhibitory percent)” value 82.4%. Against it:
- O=C1N=C(SCc2ccccn2)N/C1=C/c1ccccc1 [Example 4, 2-(2-pyridylmethylthio)-5-trans-benzylideneimidazolin-4-one] — lower, 63.3%
- C=C1NC(SCc2ccccn2)=NC1=O [Example 5, 2-(2-pyridylmethylthio)-5-trans-methylideneimidazolin-4-one] — lower, 23.3%
- CCC1(c2ccccc2)N=C(SCc2ccccn2)NC1=O (centres unmarked) [Example 13, 2-(2-pyridylmethylthio)-5-ethyl-5-phenylimidazolin-4-one] — lower, 46.3%
- CN(C)c1ccccc1CSC1=NC(=O)/C(=C\c2ccccc2)N1 [Example 18, 2-(2-dimethylaminobenzylthio)-5-trans-benzylideneimidazolin-4-one] — lower, 34.1%
- CC1N=C(SCc2ccccc2N(C)C)NC1=O (centres unmarked) [Example 22, 2-(2-dimethylaminobenzylthio)-5-methylimidazolin-4-one] — lower, 48.9%
- CCC1(CC)N=C(SCc2ccccc2N(C)C)NC1=O [Example 28, 2-(2-dimethylaminobenzylthio)-5,5-diethylimidazolin-4-one] — lower, 73.8%
- CN1C(=O)C(C)(C)N=C1SCc1ccccc1N(C)C [Example 35, 1-N-methyl-2-(2-dimethylaminobenzylthio)-4,4-dimethyl-2-imidazolin-5-one] — lower, 30.6%
- CC1(C)N=C(SCc2cccc3cccnc23)NC1=S [Example 44, 2-(8-quinolynylmethylthio)-5,5-dimethylimidazolin-4-thione] — lower, 28.8%

tested on: not listed separately; experiment: Single-dose toxicity study; settings: mouse, in vivo, male ddY mice, oral, observed two weeks, read-out: median lethal dose LD50
Experimental: Ten male ddY mice (each having a weight of 22-28 g) were used as specimen animal in a cage kept at a substantially constant temperature of 23°±1° C. and under a substantially constant humidity of 55±5%. The compound prepared in Example 39, that is, 2-(2-dimethylaminobenzylthio)-5,5-dimethylimidazolin-4-thione was used as the specimen drug. This compound was suspended in a 2% solution of polysorbate 80, and the suspension was administered to each specimen mouse, with different doses. […] On the basis of the death percent, lethal dose (LD50) which causes a 50% death was obtained as an index indicative of the single dose toxicity. The obtained median lethal dose LD50 (oral administration) was 2000 mg/kg or more. It was thus confirmed that the median lethal dose LD50 (oral administration) of the compound according to the present invention was sufficiently large, indicating a low degree of toxicity or a high degree of safety.

For `CN(C)c1ccccc1CSC1=NC(C)(C)C(=S)N1` [Example 39, 2-(2-dimethylaminobenzylthio)-5,5-dimethylimidazolin-4-thione], the LD50 at 336 h was no less than 2000 mg/kg.
